Measured values as given in ChEMBL document CHEMBL1201862, “PubChem BioAssay data set” (2004).
Calls of active or inactive are those of the source.

Assays:
[1] = ZM109 Env clade C HIV-1 fusion inhibitors, dose response, HeLa effector, CEM target cells, luciferase, cherry-pick (AID 652058); type: functional, cell-based
[2] = cells; type: functional, cell-based; conditions: HEK-CNG
[3] = control 3'UTR Renilla luciferase suppression, dose response, counter-screen for Shn3 inhibitor project, cell-based, Clone20-Shn3RL, cherry-picked (AID 624133); type: functional
[4] = cytotoxicity toward NIH3T3 fibroblasts, dose response, counter-screen, cell-based, ATP luminescence, mouse fibroblasts (AID 2010); type: functional;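 further: cells exposed to compound for about 90 hours before reading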
[5] = Shn3 3'UTR reporter inhibitors, dose response, cell-based, Clone20 osteoblasts, firefly luciferase, cherry-picked (AID 624132); type: functional;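 further: firefly luciferase luminescence from reporter carrying the Shn3 3'UTR in osteoblasts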
[6] = inhibitors of HIV Env-driven cell fusion, dose response, cherry-pick (AID 652057); type: functional, cell-based
[7] = biological target: T1, Galanin receptor type 3 (Homo sapiens, UniProt O60755); assay: Fluorescence-based cell-based primary high throughput dose response assay to identify antagonists of the Galanin Receptor 3 (GalR3).; type: functional
T1 sequence (O60755 whole entry): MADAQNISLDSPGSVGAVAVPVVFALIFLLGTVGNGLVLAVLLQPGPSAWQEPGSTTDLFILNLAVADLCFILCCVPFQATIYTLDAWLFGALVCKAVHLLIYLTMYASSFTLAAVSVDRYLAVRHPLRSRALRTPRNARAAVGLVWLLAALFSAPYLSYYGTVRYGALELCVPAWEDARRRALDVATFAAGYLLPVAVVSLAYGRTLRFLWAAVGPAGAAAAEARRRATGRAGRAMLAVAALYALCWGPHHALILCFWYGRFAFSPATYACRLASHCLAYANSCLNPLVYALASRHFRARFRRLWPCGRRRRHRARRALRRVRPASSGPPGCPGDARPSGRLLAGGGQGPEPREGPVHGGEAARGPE

[8] = tested on: Streptococcus sp. 'group A'; assay: growth inhibition of control SK(-) GAS strain, dose response, counter-screen for streptokinase expression inhibitor project, luminescence, kanamycin, BacTiterGlo, confirmation (AID 1900); type: functional, organism-based
[9] = biological target: Serine/threonine-protein phosphatase PP1-alpha catalytic subunit (Homo sapiens, UniProt P62136); assay: PP1 phosphatase inhibitors, dose response, biochemical, fluorescence (AID 2403);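 further: phosphatase turnover of OMFP into fluorescent 3-O-methylfluorescein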
Chain of Serine/threonine-protein phosphatase PP1-alpha catalytic subunit (P62136 whole entry): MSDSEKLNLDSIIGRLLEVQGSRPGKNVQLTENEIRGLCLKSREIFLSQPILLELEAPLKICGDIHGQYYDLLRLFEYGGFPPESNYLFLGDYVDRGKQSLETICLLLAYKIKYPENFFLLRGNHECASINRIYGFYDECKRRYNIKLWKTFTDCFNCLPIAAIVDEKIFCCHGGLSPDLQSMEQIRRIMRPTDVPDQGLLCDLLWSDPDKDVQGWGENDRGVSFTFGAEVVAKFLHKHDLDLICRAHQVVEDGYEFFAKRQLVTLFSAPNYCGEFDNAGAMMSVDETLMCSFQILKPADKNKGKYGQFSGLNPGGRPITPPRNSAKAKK

[10] = tested on: Vero; assay: cells; type: functional; conditions: Chlorocebus sabaeus
[11] = inhibitors of intracellular T. cruzi replication, confirmation, NIH3T3 host cells, beta-gal luminescence (AID 2044); type: functional, cell-based;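 further: intracellular parasites grown in NIH/3T3 mouse fibroblasts as host cells; luminescent beta-galactosidase reporter signal from transgenic T. cruzi replicating inside host cells; inhibitors lower the luminescence signal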
[12] = biological target: Serine/threonine-protein phosphatase (Homo sapiens, UniProt Q9BPW0); assay: Counterscreen for inhibitors of PP1: fluorescence-based biochemical high throughput dose response assay to identify inhibitors of Protein Phosphatase 5 (PP5). [Related pubchem assays: 2034 (Summary (PP5 inhibitors)), 1987 (PP5 inhibitors in singlate), 2235 (PP1 inhibitors in singlate)]
Chain of Serine/threonine-protein phosphatase (Q9BPW0 whole entry, the tested form may be a part): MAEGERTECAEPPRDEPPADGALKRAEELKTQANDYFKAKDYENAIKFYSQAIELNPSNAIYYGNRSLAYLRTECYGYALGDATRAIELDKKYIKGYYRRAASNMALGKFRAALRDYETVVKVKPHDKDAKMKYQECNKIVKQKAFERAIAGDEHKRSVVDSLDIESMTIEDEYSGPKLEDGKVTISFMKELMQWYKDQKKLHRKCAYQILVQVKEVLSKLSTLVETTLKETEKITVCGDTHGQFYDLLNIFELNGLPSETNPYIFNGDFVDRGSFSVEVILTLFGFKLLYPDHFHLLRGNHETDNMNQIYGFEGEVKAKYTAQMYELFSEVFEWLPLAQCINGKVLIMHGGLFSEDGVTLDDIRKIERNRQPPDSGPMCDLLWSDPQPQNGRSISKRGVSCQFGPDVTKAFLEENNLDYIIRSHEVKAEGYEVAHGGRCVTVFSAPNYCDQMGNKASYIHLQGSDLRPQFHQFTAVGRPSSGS

[13] = off-target signal loss in HeLa-CEM21 co-culture – HeLa F-luc CTL cells, cherry-picked, counter-screen for HIV-1 Env fusion inhibitor project, dose response (AID 652040); type: functional, cell-based;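 further: potency for signal decrease marking cytotoxic or nonspecific inhibition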
[14] = biological target: T2, COUP transcription factor 2 (Homo sapiens, UniProt P24468); assay: Luminescence-based cell-based high throughput dose response assay to identify inhibitors of COUP-TFII (NR2F2).; type: functional;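 further: HEK293 cells transiently cotransfected with COUP-TFII expression vector and reporter; luciferase reporter luminescence driven by COUP-TFII from the pX2-168 reporter plasmid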
T2 sequence (P24468 whole entry): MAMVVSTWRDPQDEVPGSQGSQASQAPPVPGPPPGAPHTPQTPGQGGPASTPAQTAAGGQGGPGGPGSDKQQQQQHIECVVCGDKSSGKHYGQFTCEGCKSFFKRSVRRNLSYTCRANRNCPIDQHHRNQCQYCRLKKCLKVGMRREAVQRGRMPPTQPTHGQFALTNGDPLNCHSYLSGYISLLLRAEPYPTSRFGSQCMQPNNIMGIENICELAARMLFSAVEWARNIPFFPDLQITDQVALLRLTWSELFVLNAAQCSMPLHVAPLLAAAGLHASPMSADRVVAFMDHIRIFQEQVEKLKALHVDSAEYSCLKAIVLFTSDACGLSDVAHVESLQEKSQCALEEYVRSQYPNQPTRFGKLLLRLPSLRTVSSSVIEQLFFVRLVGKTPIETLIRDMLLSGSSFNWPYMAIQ

[15] = CEM21 lymphoblast cell cytotoxicity, dose response, cytotoxicity control for viral fusion inhibitor project, CellTiter-Glo luminescence, cherry-picked (AID 652042); type: functional, cell-based;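 further: potency for signal decrease meaning cytotoxicity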
[16] = biological target: Sphingosine 1-phosphate receptor 2 (Homo sapiens, UniProt O95136); assay: Dose Response Cell Based Assay for Antagonists of the S1P2 Receptor. [Related pubchem assays: 856, 736 ]; type: functional
Chain of Sphingosine 1-phosphate receptor 2 (O95136 whole entry): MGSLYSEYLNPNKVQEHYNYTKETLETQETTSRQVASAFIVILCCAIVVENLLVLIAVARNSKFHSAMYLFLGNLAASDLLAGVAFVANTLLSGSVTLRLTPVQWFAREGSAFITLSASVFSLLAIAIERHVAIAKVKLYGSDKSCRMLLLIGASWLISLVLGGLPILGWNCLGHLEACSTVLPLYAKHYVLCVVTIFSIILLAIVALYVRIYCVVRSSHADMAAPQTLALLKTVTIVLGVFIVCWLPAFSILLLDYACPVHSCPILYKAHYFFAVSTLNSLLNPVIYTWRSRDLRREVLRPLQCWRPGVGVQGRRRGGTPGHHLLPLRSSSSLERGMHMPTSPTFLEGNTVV

[17] = HepG2 cell cytotoxicity, dose response, cytotoxicity control for Shn3 inhibitor project, CellTiter-Glo, cherry-picked (AID 624134); type: functional, cell-based
[18] = inhibitors of clade B AD8 Env fusion, dose response, cell-based, cherry-pick (AID 652062); type: functional;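 further: luciferase signal from cell-cell fusion driven by HIV-1 clade B AD8 Env; potency is for inhibitors of fusion seen as a drop in luminescence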
[19] = tested on: Streptococcus; assay: Group A Streptococcus viability loss, dose response, counter-screen for streptokinase expression inhibitor project, luminescence, BacTiterGlo (AID 1915); type: functional, organism-based;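 further: potency for reduction of bacterial viability or growth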
[20] = biological target: Eukaryotic translation initiation factor 4H (Homo sapiens, UniProt Q15056); assay: human eIF4H binding inhibitors, primary screen, translation initiation inhibitor project, biochemical, uHTS, fluorescence polarization (AID 2012)
[21] = biological target: Polyadenylate-binding protein 1 (Homo sapiens, UniProt P11940); assay: PABP poly(A) RNA binding inhibitors, primary screen, biochemical, fluorescence polarization, uHTS (AID 2014)
Chain of Polyadenylate-binding protein 1 (P11940 whole entry): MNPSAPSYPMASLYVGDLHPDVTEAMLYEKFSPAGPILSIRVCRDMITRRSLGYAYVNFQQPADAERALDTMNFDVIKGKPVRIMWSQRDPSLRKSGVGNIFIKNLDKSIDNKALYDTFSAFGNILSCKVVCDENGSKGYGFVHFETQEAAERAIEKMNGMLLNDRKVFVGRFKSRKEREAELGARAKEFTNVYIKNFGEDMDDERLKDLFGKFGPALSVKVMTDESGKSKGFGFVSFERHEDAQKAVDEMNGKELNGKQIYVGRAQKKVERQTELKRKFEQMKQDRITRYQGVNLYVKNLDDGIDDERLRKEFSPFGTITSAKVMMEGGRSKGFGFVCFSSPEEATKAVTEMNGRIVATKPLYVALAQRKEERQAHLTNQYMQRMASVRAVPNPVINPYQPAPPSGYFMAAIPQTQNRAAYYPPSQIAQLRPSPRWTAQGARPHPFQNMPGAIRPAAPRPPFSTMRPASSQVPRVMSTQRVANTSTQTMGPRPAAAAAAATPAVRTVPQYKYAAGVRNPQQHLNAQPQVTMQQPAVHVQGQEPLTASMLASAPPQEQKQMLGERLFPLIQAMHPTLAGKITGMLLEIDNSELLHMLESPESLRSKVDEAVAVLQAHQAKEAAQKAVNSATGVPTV

[22] = biological target: Cyclin-dependent kinase 5/CDK5 activator 1 (Homo sapiens, UniProt Q00535); assay: CDK5/p35 kinase inhibitors, dose response, biochemical, cherry-picked samples, set 2 (AID 504545)
Chain of Cyclin-dependent kinase 5/CDK5 activator 1 (Q00535 whole entry, the tested form may be a part): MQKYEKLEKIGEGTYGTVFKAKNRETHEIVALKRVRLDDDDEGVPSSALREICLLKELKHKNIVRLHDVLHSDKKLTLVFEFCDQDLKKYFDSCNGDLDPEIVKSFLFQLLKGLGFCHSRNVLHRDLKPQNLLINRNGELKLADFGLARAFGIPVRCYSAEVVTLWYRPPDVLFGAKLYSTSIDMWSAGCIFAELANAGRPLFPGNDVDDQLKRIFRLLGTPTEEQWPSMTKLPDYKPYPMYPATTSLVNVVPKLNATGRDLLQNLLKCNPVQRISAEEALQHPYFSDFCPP
Chain of Cyclin-dependent kinase 5/CDK5 activator 1 (Q15078 whole entry, further chain, the tested form may be a part): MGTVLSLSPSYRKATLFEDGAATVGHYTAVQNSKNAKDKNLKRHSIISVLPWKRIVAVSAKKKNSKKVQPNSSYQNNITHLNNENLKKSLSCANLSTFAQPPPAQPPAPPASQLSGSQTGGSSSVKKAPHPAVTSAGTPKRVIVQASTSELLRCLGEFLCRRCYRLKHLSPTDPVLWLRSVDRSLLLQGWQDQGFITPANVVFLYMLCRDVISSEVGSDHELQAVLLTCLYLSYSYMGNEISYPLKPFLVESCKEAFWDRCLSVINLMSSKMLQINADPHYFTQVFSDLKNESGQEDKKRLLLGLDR

[23] = biological target: T3, Oxysterols receptor LXR-beta (Homo sapiens, UniProt P55055); assay: LXR agonists, Gal4 luciferase reporter, dose response, counter-screen for ssDAF-12 agonist project, cell-based, luminescence, HEK293, S. stercoralis campaign (AID 720737); type: functional; conditions: read-out: IC50 (the source's name)
T3 sequence (P55055 whole entry): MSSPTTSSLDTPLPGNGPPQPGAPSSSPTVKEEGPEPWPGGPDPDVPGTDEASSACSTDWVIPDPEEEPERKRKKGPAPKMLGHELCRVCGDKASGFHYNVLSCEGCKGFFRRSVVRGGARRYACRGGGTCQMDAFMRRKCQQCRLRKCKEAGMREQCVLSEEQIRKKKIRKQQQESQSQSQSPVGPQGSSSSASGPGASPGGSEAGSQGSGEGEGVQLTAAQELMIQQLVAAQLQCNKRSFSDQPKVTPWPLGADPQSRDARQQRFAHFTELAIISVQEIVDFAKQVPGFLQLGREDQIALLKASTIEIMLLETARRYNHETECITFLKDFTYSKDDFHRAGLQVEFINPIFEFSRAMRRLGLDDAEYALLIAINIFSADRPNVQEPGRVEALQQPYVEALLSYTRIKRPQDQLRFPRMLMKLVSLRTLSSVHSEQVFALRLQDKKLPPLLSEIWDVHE

[24] = Luminescence-based cell-based high throughput dose response assay to identify activators of the DAF-12 from the parasite S. stercoralis (ssDAF-12).; type: functional
[25] = biological target: Dual specificity tyrosine-phosphorylation-regulated kinase 1A (Rattus norvegicus, UniProt Q63470); type: biochemical, Homo sapiens
[26] = biological target: G-protein coupled receptor 35 (Homo sapiens, UniProt Q9HC97); assay: GPR35 antagonists blocking zaprinast-driven arrestin recruitment, primary screen, imaging, U2OS, beta-arrestin-GFP, zaprinast agonist (AID 2058); type: functional;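 further: antagonist potency meaning inhibition of agonist-induced arrestin redistribution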
Chain of G-protein coupled receptor 35 (Q9HC97 whole entry): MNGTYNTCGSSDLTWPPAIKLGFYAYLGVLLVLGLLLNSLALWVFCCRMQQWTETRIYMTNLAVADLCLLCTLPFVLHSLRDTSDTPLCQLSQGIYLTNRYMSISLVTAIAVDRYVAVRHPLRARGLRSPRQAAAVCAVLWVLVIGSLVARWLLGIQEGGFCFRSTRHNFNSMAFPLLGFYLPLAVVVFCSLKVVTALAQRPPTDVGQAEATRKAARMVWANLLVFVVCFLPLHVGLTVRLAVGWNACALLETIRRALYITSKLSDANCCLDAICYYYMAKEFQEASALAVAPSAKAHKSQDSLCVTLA

[27] = cytotoxicity in KRAS-transformed pancreatic duct cells, primary screen, cell-based, fluorescence, HTS (AID 431); type: functional; conditions: Homo sapiens;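 further: cell line used: HPDE-C7K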
[28] = biological target: T4, Heat shock factor protein 1 (Mus musculus, UniProt P38532); assay: HSF1 potentiators in luciferase reporter cells, confirmation, cell-based, NIH3T3, luminescence, dose retest (AID 435004); type: functional;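 further: stress induced by proteasome inhibitor MG132 added 30 min after compound; luciferase reporter driven by HSF1 response element in NIH3T3 cells; actives raise luminescence as potentiators of the MG132 stress response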
T4 sequence (P38532 whole entry): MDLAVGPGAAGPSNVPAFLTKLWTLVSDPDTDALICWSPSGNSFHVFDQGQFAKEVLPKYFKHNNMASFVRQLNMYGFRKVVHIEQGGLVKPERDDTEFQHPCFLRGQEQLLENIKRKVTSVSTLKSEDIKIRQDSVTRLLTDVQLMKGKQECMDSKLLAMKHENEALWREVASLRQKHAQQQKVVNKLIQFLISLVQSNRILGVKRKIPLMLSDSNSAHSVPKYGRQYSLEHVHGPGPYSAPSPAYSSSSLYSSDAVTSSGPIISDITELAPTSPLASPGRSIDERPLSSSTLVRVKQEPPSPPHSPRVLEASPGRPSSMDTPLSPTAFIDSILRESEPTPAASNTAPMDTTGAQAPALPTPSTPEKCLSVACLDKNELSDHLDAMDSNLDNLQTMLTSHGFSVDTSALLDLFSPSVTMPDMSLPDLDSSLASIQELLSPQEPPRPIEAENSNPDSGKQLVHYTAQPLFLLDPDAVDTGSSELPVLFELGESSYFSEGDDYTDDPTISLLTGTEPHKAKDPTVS

[29] = cytotoxicity in HPDE-C7 cells, cell-based, fluorescence, HTS (AID 430); type: functional; conditions: Homo sapiens
[30] = microbe, parasite or virus in culture; type: functional; conditions: Mycobacterium tuberculosis
[31] = biological target: Glyceraldehyde-3-phosphate dehydrogenase (Homo sapiens, UniProt P04406)
Chain of Glyceraldehyde-3-phosphate dehydrogenase (P04406 whole entry): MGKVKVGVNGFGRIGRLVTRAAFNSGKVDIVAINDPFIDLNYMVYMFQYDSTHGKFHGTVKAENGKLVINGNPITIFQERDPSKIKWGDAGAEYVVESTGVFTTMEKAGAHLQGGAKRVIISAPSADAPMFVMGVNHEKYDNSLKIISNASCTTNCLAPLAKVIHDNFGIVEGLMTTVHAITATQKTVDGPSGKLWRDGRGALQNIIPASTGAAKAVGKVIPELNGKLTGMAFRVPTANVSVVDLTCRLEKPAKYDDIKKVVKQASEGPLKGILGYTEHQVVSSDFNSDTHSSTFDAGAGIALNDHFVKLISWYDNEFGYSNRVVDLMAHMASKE

CCOC(=O)c1cnc(-n2nc(C)cc2C)nc1NC1CCCCC1
> 67 µM (not active): IC50 [12]
inactive: EC50 [2] 14.5 µM | IC50 [7] > 29.9 µM
active: AC50 [1] 21.3 µM | AC50 [3] 3.29 µM | EC50 [4] 12.8 µM | AC50 [5] 3.01 µM | AC50 [6] 35.5 µM | EC50 [8] 1.82 µM | IC50 [9] 6.65 µM | CC50 [10] 11.5 µM | EC50 [11] 1.2 µM | AC50 [13] 27.1 µM | IC50 [14] 7.02 µM | AC50 [15] 18.1 µM | IC50 [16] 4.39 µM | AC50 [17] 4.48 µM | AC50 [18] 33.4 µM | EC50 [19] 2.5 µM

c1cc[n+](CCC[n+]2ccccc2)cc1
active: IC50 [20] 96.5 µM | IC50 [21] 3.68 µM

O=C(O)c1ccc(/C=N/Nc2ccc(C(F)(F)F)cn2)cc1
inactive: EC50 [23] > 67.6 µM | IC50 [24] > 67.6 µM
active: AC50 [22] 5.54 µM | AC50 [25] 7.95 µM

CCN(CC)c1ccc2c(Cl)c(Br)c(=O)oc2c1
inconclusive: EC50 [28] 2.75 µM
active: EC50 [4] 4.88 µM | IC50 [26] < 0.5 µM | EC50 [27] 2.08 µM | EC50 [11] 2.96 µM | EC50 [29] 3.1 µM | IC50 [16] 2.53 µM | CC50 [30] > 40 µM

O=C(O)CSc1ccc2cc(O)ccc2c1
> 100 µM (not active): IC50 [31]

CCN1CCN(C2=C(Cl)C(=O)N(c3ccc(C)cc3)C2=O)CC1
inconclusive: IC50 [31] > 50 µM
